Assay results as given in patent publication US20240425523A1, “Compounds for the Degradation of EGFR Kinase” (Beigene Switzerland GMBH, priority 2023, published 2024).

Columns and labels:
Type in all cases: cell-based
[1] = biological target: T1, p-EGFR L858R (BaF3-L858R cells) (Homo sapiens, UniProt P00533, L858R); experiment: Cell p-EGFR inhibition assay, HTRF, BaF3-L858R cells; settings: 16 h treatment; for Imax (%): maximum percentage of pEGFR inhibition; for IC50: pEGFR inhibition
T1 construct: host or cells: BaF3
Procedure, shortened: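 BaF3-L858R cells treated 16 h at 37 °C, 5% CO2 with compound from 10 uM top, 5-fold dilutions, 8 doses, in 0.1% DMSO medium. Lysates read overnight by HTRF p-EGFR antibodies; IC50 fitted to four-parameter curve against DMSO high control.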

[2] = biological target: p-EGFR Del19/C797S (H1975-clone #23 cells) (Homo sapiens, UniProt P00533); experiment: Cell p-EGFR inhibition assay, HTRF, H1975-clone#23 (DEL19/C797S) cells; settings: 16 h treatment; for Imax (%): maximum percentage of pEGFR inhibition; for IC50: pEGFR inhibition
Procedure, shortened: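 Phospho-EGFR read by overnight HTRF on lysates, normalized to DMSO-treated high control; IC50, Hill slope and Imax fitted. Compounds were applied for 16 h (10 uM top, 5-fold steps, 8 doses) to an H1975 single clone carrying only exogenous Del19/C797S EGFR after sgRNA knockout of endogenous copies.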

[3] = biological target: T2, EGFR-L858R/C797S (H1975-clone #8 cells) (Homo sapiens, UniProt P00533, C797S/L858R); experiment: Cell degradation of EGFR, HTRF assay, H1975-clone#8 (L858R/C797S) cells; settings: 16 h treatment; for DC50: EGFR degradation; for Dmax: maximum percentage of degradation
T2 construct: expressed in transfected cells; host or cells: H1975 (endogenous EGFR knocked out, clone #8)

[4] = biological target: T3, EGFR L858R (BaF3-L858R cells) (Homo sapiens, UniProt P00533, L858R); experiment: Cell degradation of EGFR, HTRF assay, BaF3-L858R cells; settings: 16 h treatment; for DC50: EGFR degradation; for Dmax: maximum percentage of degradation
T3 construct: host or cells: BaF3
Procedure, shortened: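 EGFR L858R levels measured by HTRF antibody pair in lysed BaF3-L858R cells after 16 h compound exposure (8-point 5-fold series from 10 uM final, 37° C). Degradation is relative to DMSO-only cells; DC50 fitted with Hill equation, Dmax taken as the largest percent loss.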

Imax (%) [1] [%]	IC50 [1] [nM]	Imax (%) [2] [%]	IC50 [2] [nM]	DC50 [3] [nM]	Dmax [3] [%]	DC50 [4] [nM]	Dmax [4] [%]	Compound
95.45	72.6	100.46	3.65	4.39	77.3	3.75	79.8	Cc1cc2cc(n1)-c1c(C)nn(C)c1OC[C@H]1CC[C@H](C1)CN1/C(=N/C2=O)Nc2ccc(N3CCC(NC4CN(c5c(F)cc(OC6CCC(=O)NC6=O)cc5F)C4)CC3)cc21 (some centres unmarked) [Example 158, 3-(3,5-difluoro-4-(3-((1-((7^1R,7^3S,E)-1^1,1^3,2^6-trimethyl-3-oxo-5^2,5^3-dihydro-1^1H,5^1H-9-oxa-4-aza-5(2,1)-benzo[d]imidazola-2(2,4)-pyridina-1(4,5)-pyrazola-7(1,3)-cyclopentanacyclononaphane-5^6-yl)piperidin-4-yl)amino)azetidin-1-yl)phenoxy)piperidine-2,6-dione]
94.19	3.02	95.87	0.59	3.01	88.2	3.08	76.5	COCCn1nc(C)c2c1OC[C@H]1CC[C@H](C1)CN1/C(=N/C(=O)c3cc(C)nc-2c3)Nc2ccc(N3CCN(C4CCN(c5cc(F)c([C@H]6CCC(=O)NC6=O)c(F)c5)CC4)[C@@H](COC)C3)cc21 [Example 160, (R)-3-(2,6-difluoro-4-(4-((R)-4-((7^1R,7^3S,E)-1^1-(2-methoxyethyl)-1^3,2^6-dimethyl-3-oxo-5^2,5^3-dihydro-1^1H,5^1H-9-oxa-4-aza-5(2,1)-benzo[d]imidazola-2(2,4)-pyridina-1(4,5)-pyrazola-7(1,3)-cyclopentanacyclononaphane-5^6-yl)-2-(methoxymethyl)piperazin-1-yl)piperidin-1-yl)phenyl)piperidine-2,6-dione]
93.23	4.51	95.04	0.49	2.96	89.3	7.2	91.4	COCCn1nc(C)c2c1OC[C@H]1CC[C@H](C1)CN1/C(=N/C(=O)c3cc(C)nc-2c3)Nc2ccc(N3CCN(C4CCN(c5cc(F)c([C@H]6CCC(=O)NC6=O)c(F)c5)CC4)CC3)cc21 [Example 161, (R)-3-(2,6-difluoro-4-(4-(4-((7^1R,7^3S,E)-1^1-(2-methoxyethyl)-1^3,2^6-dimethyl-3-oxo-5^2,5^3-dihydro-1^1H,5^1H-9-oxa-4-aza-5(2,1)-benzo[d]imidazola-2(2,4)-pyridina-1(4,5)-pyrazola-7(1,3)-cyclopentanacyclononaphane-5^6-yl)piperazin-1-yl)piperidin-1-yl)phenyl)piperidine-2,6-dione]
93.37	3.68	95.16	0.21	3.14	85.4	4.86	88.6	Cc1cc2cc(n1)-c1cnn(C)c1OC[C@H]1CC[C@H](C1)CN1/C(=N/C2=O)Nc2ccc(N3CCN(C4CCN(c5ccc([C@H]6CCC(=O)NC6=O)nc5C)CC4)[C@H](C)C3)cc21 [Example 162, 3-(5-(4-((R)-4-((7^1R,7^3S,E)-1^1,2^6-dimethyl-3-oxo-5^2,5^3-dihydro-1^1H,5^1H-9-oxa-4-aza-5(2,1)-benzo[d]imidazola-2(2,4)-pyridina-1(4,5)-pyrazola-7(1,3)-cyclopentanacyclononaphane-5^6-yl)-2-methylpiperazin-1-yl)piperidin-1-yl)-6-methylpyridin-2-yl)piperidine-2,6-dione]
